pIC50: −log10 of the molar value. Where a name gives a salt, the structure may show the parent alone.
biological target: hBTK (full-length BTK, 6HIS-tag cleaved) (Homo sapiens (Human), UniProt Q06187); assay: BTK enzymatic activity, LANCE TR-FRET assay (Assay Method C); assay type: biochemical; details: LANCE TR-FRET, 50 pM hBTK, 25 μM ATP; class 100-1000 is given as ≧100 nM-<1 μM; read-out: IC50 Btk activity values - Assay Method C
Sequence (Q06187 whole entry): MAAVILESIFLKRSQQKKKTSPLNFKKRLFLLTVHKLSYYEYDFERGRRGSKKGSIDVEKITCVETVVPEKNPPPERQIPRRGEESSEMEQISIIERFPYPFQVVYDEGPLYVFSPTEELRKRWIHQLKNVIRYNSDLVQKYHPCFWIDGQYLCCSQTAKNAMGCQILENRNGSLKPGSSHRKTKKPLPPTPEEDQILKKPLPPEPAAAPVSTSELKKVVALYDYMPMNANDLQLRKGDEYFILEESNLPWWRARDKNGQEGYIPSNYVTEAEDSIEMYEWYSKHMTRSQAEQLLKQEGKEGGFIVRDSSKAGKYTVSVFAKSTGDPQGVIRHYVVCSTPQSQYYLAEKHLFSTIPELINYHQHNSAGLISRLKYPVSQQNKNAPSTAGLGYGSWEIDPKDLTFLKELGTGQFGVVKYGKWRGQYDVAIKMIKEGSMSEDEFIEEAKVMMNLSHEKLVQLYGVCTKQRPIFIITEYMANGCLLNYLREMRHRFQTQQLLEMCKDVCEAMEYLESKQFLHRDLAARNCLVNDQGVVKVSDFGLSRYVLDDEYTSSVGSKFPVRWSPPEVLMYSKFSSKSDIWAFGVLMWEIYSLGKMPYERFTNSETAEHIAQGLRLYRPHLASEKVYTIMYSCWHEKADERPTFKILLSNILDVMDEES

| pIC50 | SMILES |
| --- | --- |
| > 8.00 | Cc1cnc(N)c2c(-c3ccc(C(=O)Nc4cc(C(F)F)ccn4)cc3)nc([C@@H]3CCCN(C(=O)C4(C)COC4)C3)n12 [Example 458, 4-(8-amino-5-methyl-3-{(3R)-1-[(3-methyloxetan-3-yl)carbonyl]piperidin-3-yl}imidazo[1,5-a]pyrazin-1-yl)-N-[4-(difluoromethyl)pyridin-2-yl]benzamide] |
| > 8.00 | COCCC(=O)N1CCC[C@@H](c2nc(-c3ccc(C(=O)Nc4cc(C(F)(F)F)ccn4)cc3F)c3c(N)nccn23)C1 [Example 576, 4-{8-amino-3-[(3R)-1-(3-methoxypropanoyl)piperidin-3-yl]imidazo[1,5-a]pyrazin-1-yl}-3-fluoro-N-[4-(trifluoromethyl)pyridin-2-yl]benzamide, TFA salt] |
| > 8.00 | Nc1nccc2c1c(-c1ccc(C(=O)Nc3cc(C(F)(F)F)ccn3)cc1)nn2[C@@H]1CCCN(C(=O)C2CC2)C1 [Example 384, 4-{4-amino-1-[(3R)-1-(cyclopropylcarbonyl)piperidin-3-yl]-1H-pyrazolo[4,3-c]pyridin-3-yl}-N-[4-(trifluoromethyl)pyridin-2-yl]benzamide] |
| > 8.00 | Nc1ncc(Cl)n2c([C@@H]3CCCN(C(=O)CO)C3)nc(-c3ccc(C(=O)Nc4cc(C(F)(F)F)ccn4)cc3)c12 [Example 441, 4-{8-amino-5-chloro-3-[(3R)-1-(hydroxyacetyl)piperidin-3-yl]imidazo[1,5-a]pyrazin-1-yl}-N-[4-(trifluoromethyl)pyridin-2-yl]benzamide] |
| > 8.00 | Nc1ncnc2c1c(-c1ccc(C(=O)Nc3cc(C(F)(F)F)ccn3)cc1)nn2[C@H]1CCCc2c1cnn2CCO [Example 563, 4-{4-amino-1-[(4S)-1-(2-hydroxyethyl)-4,5,6,7-tetrahydro-1H-indazol-4-yl]-1H-pyrazolo[3,4-d]pyrimidin-3-yl}-N-[4-(trifluoromethyl)pyridin-2-yl]benzamide, TFA salt] |
| > 8.00 | CCCOc1ccnc(NC(=O)c2ccc(-c3nc([C@@H]4CCCN(C(=O)C5(C)COC5)C4)n4ccnc(N)c34)c(F)c2)c1 [Example 481, 4-(8-amino-3-{(3R)-1-[(3-methyloxetan-3-yl)carbonyl]piperidin-3-yl}imidazo[1,5-a]pyrazin-1-yl)-3-fluoro-N-(4-propoxypyridin-2-yl)benzamide] |
| > 8.00 | C[C@@H](O)c1cnc(N)c2c(-c3ccc(C(=O)Nc4cc(C(F)(F)F)ccn4)cc3)nc([C@@H]3CCCN(C(=O)C4(C)COC4)C3)n12 [Example 465, 4-(8-amino-5-[(1R)-1-hydroxyethyl]-3-{(3R)-1-[(3-methyloxetan-3-yl)carbonyl]piperidin-3-yl}imidazo[1,5-a]pyrazin-1-yl)-N-[4-(trifluoromethyl)pyridin-2-yl]benzamide] |
| > 8.00 | N#CCN1CCO[C@@H](c2nc(-c3ccc(C(=O)Nc4cc(C(F)(F)F)ccn4)cc3)c3c(N)nccn23)C1 [Example 531, 4-{8-amino-3-[(2R)-4-(cyanomethyl)morpholin-2-yl]imidazo[1,5-a]pyrazin-1-yl}-N-[4-(trifluoromethyl)pyridin-2-yl]benzamide] |
| > 8.00 | CCC(=O)N1CCC[C@@H](c2nc(-c3ccc(C(=O)Nc4cc(C(F)F)ccn4)cc3F)c3c(N)nccn23)C1 [Example 488, 4-{8-amino-3-[(3R)-1-propanoylpiperidin-3-yl]imidazo[1,5-a]pyrazin-1-yl}-N-[4-(difluoromethyl)pyridin-2-yl]-3-fluorobenzamide] |
| > 8.00 | Nc1ncnc2c1c(-c1ccc(C(=O)Nc3cc(C(F)(F)F)ccn3)cc1)nn2[C@H]1CC[C@H](C(F)(F)F)NC1 [Example 556, 4-{4-amino-1-[(3S,6R)-6-(trifluoromethyl)piperidin-3-yl]-1H-pyrazolo[3,4-d]pyrimidin-3-yl}-N-[4-(trifluoromethyl)pyridin-2-yl]benzamide, TFA salt] |
| > 8.00 | CC1(C(=O)N2CCC[C@@H](c3nc(-c4ccc(C(=O)Nc5cc(C(F)(F)F)ccn5)cc4)c4c(N)ncc(CO)n34)C2)COC1 [Example 471, 4-[8-amino-5-(hydroxymethyl)-3-{(3R)-1-[(3-methyloxetan-3-yl)carbonyl]piperidin-3-yl}imidazo[1,5-a]pyrazin-1-yl]-N-[4-(trifluoromethyl)pyridin-2-yl]benzamide] |
| > 8.00 | N#CC1(C(=O)N2CCC[C@@H](c3nc(-c4ccc(C(=O)Nc5cc(C(F)(F)F)ccn5)cc4)c4c(N)nccn34)C2)CC1 [Example 335, 4-(8-amino-3-{(3R)-1-[(1-cyanocyclopropyl)carbonyl]piperidin-3-yl}imidazo[1,5-a]pyrazin-1-yl)-N-[4-(trifluoromethyl)pyridin-2-yl]benzamide] |
| > 8.00 | C[C@H]1CC[C@@H](c2nc(-c3ccc(C(=O)Nc4cc(C(F)(F)F)ccn4)cc3)c3c(N)nccn23)CN1C(=O)C1(C)COC1 [Example 393, 4-(8-amino-3-{(3R,6S)-6-methyl-1-[(3-methyloxetan-3-yl)carbonyl]piperidin-3-yl}imidazo[1,5-a]pyrazin-1-yl)-N-[4-(trifluoromethyl)pyridin-2-yl]benzamide] |
| > 8.00 | COCC(=O)N1CCO[C@@H](c2nc(-c3ccc(C(=O)Nc4cc(C(F)(F)F)ccn4)cc3)c3c(N)ncc(Cl)n23)C1 [Example 528, 4-{8-amino-5-chloro-3-[(2R)-4-(methoxyacetyl)morpholin-2-yl]imidazo[1,5-a]pyrazin-1-yl}-N-[4-(trifluoromethyl)pyridin-2-yl]benzamide] |
| > 8.00 | CCOCC(=O)N1CCO[C@@H](c2nc(-c3ccc(C(=O)Nc4cc(C(F)(F)F)ccn4)cc3)c3c(N)nccn23)C1 [Example 518, 4-{8-amino-3-[(2R)-4-(ethoxyacetyl)morpholin-2-yl]imidazo[1,5-a]pyrazin-1-yl}-N-[4-(trifluoromethyl)pyridin-2-yl]benzamide] |
| > 8.00 | COc1ccnc(NC(=O)c2ccc(-c3nc([C@@H]4CCCN(C(=O)C5(C)COC5)C4)n4c(Cl)cnc(N)c34)cc2)c1 [Example 444, 4-(8-amino-5-chloro-3-{(3R)-1-[(3-methyloxetan-3-yl)carbonyl]piperidin-3-yl}imidazo[1,5-a]pyrazin-1-yl)-N-(4-methoxypyridin-2-yl)benzamide] |
| > 8.00 | CN1C[C@@H](c2nc(-c3ccc(C(=O)Nc4cc(C(F)(F)F)ccn4)cc3)c3c(N)nccn23)CC[C@@H]1C(F)(F)F [Example 410, 4-{8-amino-3-[(3S,6R)-1-methyl-6-(trifluoromethyl)piperidin-3-yl]imidazo[1,5-a]pyrazin-1-yl}-N-[4-(trifluoromethyl)pyridin-2-yl]benzamide] |
| > 8.00 | CCOCC(=O)N1CCO[C@@H](c2nc(-c3ccc(C(=O)Nc4cc(C(F)(F)F)ccn4)cc3)c3c(N)ncc(C)n23)C1 [Example 537, 4-{8-amino-3-[(2R)-4-(ethoxyacetyl)morpholin-2-yl]-5-methylimidazo[1,5-a]pyrazin-1-yl}-N-[4-(trifluoromethyl)pyridin-2-yl]benzamide, TFA salt] |
| > 8.00 | CS(=O)(=O)CC(=O)N1CCC[C@@H](c2nc(-c3ccc(C(=O)Nc4cc(C(F)(F)F)ccn4)cc3)c3c(N)nccn23)C1 [Example 349, 4-(8-amino-3-{(3R)-1-[(methylsulfonyl)acetyl]piperidin-3-yl}imidazo[1,5-a]pyrazin-1-yl)-N-[4-(trifluoromethyl)pyridin-2-yl]benzamide] |
| > 8.00 | CCOCCC(=O)N1CCO[C@@H](c2nc(-c3ccc(C(=O)Nc4cc(C(F)(F)F)ccn4)cc3)c3c(N)nccn23)C1 [Example 503, 4-{8-amino-3-[(2R)-4-(3-ethoxypropanoyl)morpholin-2-yl]imidazo[1,5-a]pyrazin-1-yl}-N-[4-(trifluoromethyl)pyridin-2-yl]benzamide] |
| > 8.00 | CC1(C(=O)N2CCC[C@@H](c3nc(-c4ccc(C(=O)Nc5ccc(C#N)cn5)cc4)c4c(N)nccn34)C2)COC1 [Example 327, 4-(8-amino-3-{(3R)-1-[(3-methyloxetan-3-yl)carbonyl]piperidin-3-yl}imidazo[1,5-a]pyrazin-1-yl)-N-(5-cyanopyridin-2-yl)benzamide] |
| > 8.00 | C[C@@H](O)C(=O)N1CCC[C@@H](c2nc(-c3ccc(C(=O)Nc4cc(C(F)(F)F)ccn4)cc3)c3c(N)nccn23)C1 [Example 346, 4-(8-amino-3-{(3R)-1-[(2R)-2-hydroxypropanoyl]piperidin-3-yl}imidazo[1,5-a]pyrazin-1-yl)-N-[4-(trifluoromethyl)pyridin-2-yl]benzamide] |
| > 8.00 | COCC(=O)N1CCO[C@@H](c2nc(-c3ccc(C(=O)Nc4cc(C(F)(F)F)ccn4)cc3F)c3c(N)nccn23)C1 [Example 551, 4-{8-amino-3-[(2R)-4-(methoxyacetyl)morpholin-2-yl]imidazo[1,5-a]pyrazin-1-yl}-3-fluoro-N-[4-(trifluoromethyl)pyridin-2-yl]benzamide, TFA salt] |
| > 8.00 | Cn1ncc2c1CCC[C@H]2n1nc(-c2ccc(C(=O)Nc3cc(C(F)(F)F)ccn3)cc2)c2c(N)ncnc21 [Example 552, 4-{4-amino-1-[(4R)-1-methyl-4,5,6,7-tetrahydro-1H-indazol-4-yl]-1H-pyrazolo[3,4-d]pyrimidin-3-yl}-N-[4-(trifluoromethyl)pyridin-2-yl]benzamide, TFA salt] |
| 7.00 to 8.00 | Cn1ccc(NC(=O)c2ccc(-c3nc([C@@H]4CCCN(C(=O)C5(C)COC5)C4)n4ccnc(N)c34)cc2)n1 [Example 365, 4-(8-amino-3-{(3R)-1-[(3-methyloxetan-3-yl)carbonyl]piperidin-3-yl}imidazo[1,5-a]pyrazin-1-yl)-N-(1-methyl-1H-pyrazol-3-yl)benzamide] |
| > 8.00 | CCC(O)C(=O)N1CCC[C@@H](c2nc(-c3ccc(C(=O)Nc4cc(C(F)(F)F)ccn4)cc3)c3c(N)nccn23)C1 (stereo partly drawn) [Example 343, 4-{8-amino-3-[(3R)-1-(2-hydroxybutanoyl)piperidin-3-yl]imidazo[1,5-a]pyrazin-1-yl}-N-[4-(trifluoromethyl)pyridin-2-yl]benzamide] |

same assay, conditions: Table D; Assay Method C (LANCE TR-FRET), 50 pM hBTK, 25 μM ATP; read-out: IC50 BTK activity value

| pIC50 | SMILES |
| --- | --- |
| 9.78 | C[C@H]1CC[C@@H](c2nc(-c3ccc(C(=O)Nc4cc(C(F)(F)F)ccn4)cc3)c3c(N)nccn23)CN1C(=O)C1(C)COC1 [Example 393, 4-(8-amino-3-{(3R,6S)-6-methyl-1-[(3-methyloxetan-3-yl)carbonyl]piperidin-3-yl}imidazo[1,5-a]pyrazin-1-yl)-N-[4-(trifluoromethyl)pyridin-2-yl]benzamide] |
| 9.05 | COCC(=O)N1CCO[C@@H](c2nc(-c3ccc(C(=O)Nc4cc(C(F)(F)F)ccn4)cc3)c3c(N)ncc(Cl)n23)C1 [Example 528, 4-{8-amino-5-chloro-3-[(2R)-4-(methoxyacetyl)morpholin-2-yl]imidazo[1,5-a]pyrazin-1-yl}-N-[4-(trifluoromethyl)pyridin-2-yl]benzamide] |
| 9.66 | C[C@@H](O)C(=O)N1CCC[C@@H](c2nc(-c3ccc(C(=O)Nc4cc(C(F)(F)F)ccn4)cc3)c3c(N)nccn23)C1 [Example 346, 4-(8-amino-3-{(3R)-1-[(2R)-2-hydroxypropanoyl]piperidin-3-yl}imidazo[1,5-a]pyrazin-1-yl)-N-[4-(trifluoromethyl)pyridin-2-yl]benzamide] |

Reference: patent publication US9718828B2 (MERCK SHARP & DOHME CORP., priority 2011, dated 2017)
